Here are results for one compound from patent publication US8716226B2, “3,5 phenyl-substituted beta amino acid derivatives as integrin antagonists” (Saint Louis University, priority 2012, dated 2014).

Experiment [1] addresses T1, recombinant human integrin αvβ1 (Homo sapiens, UniProt P05556+P06756).
T1 construct: purchased R&D Systems 6579-AV
Put plainly: Solid phase receptor assay for αvβ1 function. The note with it: purified integrin binding to fibronectin-coated plate.
Description: Purified human fibronectin (R&D Systems, Inc) diluted to 5 μg/ml in TBS buffer (25 mM Tris 7.4, 137 mM NaCl, 2.7 mM KCl, 1 mM CaCl2, 1 mM MgCl2, 1 mM MnCl2) was added to wells (50 μl/well) of a 96-well half-well transparent microtiter plate (Costar 3690), and incubated overnight at 4° C. Wells were washed 3 times with 150 μl TBS, and 150 μl of blocking buffer (TBS with 1% bovine serum albumin) were added. The plate was incubated for 1 hr at 37° C., and then washed 3× with TBS buffer. Purified recombinant human integrin αvβ1 (R&D Systems 6579-AV) was diluted to 2.0 μg/ml in TBS/0.1% bovine serum albumin. Compounds were diluted into the integrin solution and then 50 μl was added to empty wells of the washed fibronectin-coated plate, according to a standard template, with each sample repeated in triplicate. After incubation for one hour at room temperature, the plate was washed 3× with 150 μl of TBS buffer. To each well, 50 μl of 1 μg/ml biotinylated anti-alpha v antibody (R&D Systems) in TBS/0.1% BSA was added, and the plate was covered and incubated for 1 hr at room temperature. After washing the plate 3× with 150 μl of TBS buffer, 50 μl of streptavidin-conjugated horseradish peroxidase (R&D Systems) was added to the wells, and the plate incubated for 20 min at room temperature. […] Plates were read by colorimetric detection at 650 nm wavelength using a Tecan Safire II plate reader.

Experiment [2] has as its system TGFβ activation by recombinant human integrin αvβ6. Put plainly: Integrin-mediated TGFβ activation assay (MLEC-PAI/L luciferase reporter co-cultured with SW480-β6 cells). To be noted: MLEC-PAI/L reporter cells co-cultured overnight with SW480-β6 cells. The experiment is classed as cell-based. On the procedure: Integrin-Mediated TGFβ Activation Assay.
Mink lung epithelial cells stably transfected with a luciferase reporter driven by a portion of the TGFβ-responsive Plasminogen Activator Inhibitor promoter (MLEC-PAI/L) were seeded at a density of 25,000/well in a white-walled, clear-bottom 96-well culture plate (Costar 3610) in 100 μL of assay medium (phenol red-free DMEM+10% fetal bovine serum). The cells were incubated for one hour in ambient air at room temperature, then at 37° C. for three hours in 5% CO2 to allow cell attachment. The medium was aspirated from the wells and 50 μL of compound diluted to 2× in assay medium was applied to each well, followed by 50 μL of assay medium containing 25,000 SW480-β6 cells, a cell line which stably overexpresses recombinant human integrin αvβ6. […] Following overnight co-culture incubation under standard conditions, the assay medium was aspirated from the wells, and a foil seal was applied to the bottom of the plate to prevent cross-detection of luminescence between the sample wells. […] The assay plate was then read immediately on a luminometer. Data was analyzed by first subtracting the mean substrate blank value from all samples, then dividing by the mean value of the MLEC-PAI/L baseline group to yield a “relative luciferase activity” value (RLA). […]
(Reporter assays use an easily measured gene product as a stand-in for the process of interest.)

T1 sequence (P06756 31-889 limits assumed): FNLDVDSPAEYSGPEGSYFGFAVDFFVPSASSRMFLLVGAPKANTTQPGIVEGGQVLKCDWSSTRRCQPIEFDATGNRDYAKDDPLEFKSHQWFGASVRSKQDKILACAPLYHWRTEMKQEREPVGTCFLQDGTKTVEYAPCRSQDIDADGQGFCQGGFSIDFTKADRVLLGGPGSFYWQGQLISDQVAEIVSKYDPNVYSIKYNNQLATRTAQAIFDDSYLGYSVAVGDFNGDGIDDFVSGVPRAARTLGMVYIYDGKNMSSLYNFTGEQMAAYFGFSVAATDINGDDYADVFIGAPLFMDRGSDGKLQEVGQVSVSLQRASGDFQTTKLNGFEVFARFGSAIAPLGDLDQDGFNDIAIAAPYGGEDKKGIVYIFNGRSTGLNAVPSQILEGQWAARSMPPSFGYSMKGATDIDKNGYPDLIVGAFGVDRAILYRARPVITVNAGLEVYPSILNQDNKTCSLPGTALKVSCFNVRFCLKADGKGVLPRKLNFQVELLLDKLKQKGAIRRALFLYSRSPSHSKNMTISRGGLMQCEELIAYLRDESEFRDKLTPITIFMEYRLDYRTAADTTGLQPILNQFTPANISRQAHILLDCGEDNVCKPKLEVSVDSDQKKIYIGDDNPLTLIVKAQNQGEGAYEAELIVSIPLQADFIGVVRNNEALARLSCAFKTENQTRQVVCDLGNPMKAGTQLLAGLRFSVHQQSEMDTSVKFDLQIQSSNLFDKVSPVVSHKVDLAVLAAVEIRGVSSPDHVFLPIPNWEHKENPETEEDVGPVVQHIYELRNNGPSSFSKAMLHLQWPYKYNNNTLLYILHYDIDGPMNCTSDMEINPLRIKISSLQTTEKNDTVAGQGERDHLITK
T1 sequence (P06756 891-992 partner limits assumed): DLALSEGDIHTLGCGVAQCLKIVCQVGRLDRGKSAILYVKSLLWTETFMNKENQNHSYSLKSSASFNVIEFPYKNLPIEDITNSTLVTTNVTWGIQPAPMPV
T1 sequence (P05556 21-728 limits assumed): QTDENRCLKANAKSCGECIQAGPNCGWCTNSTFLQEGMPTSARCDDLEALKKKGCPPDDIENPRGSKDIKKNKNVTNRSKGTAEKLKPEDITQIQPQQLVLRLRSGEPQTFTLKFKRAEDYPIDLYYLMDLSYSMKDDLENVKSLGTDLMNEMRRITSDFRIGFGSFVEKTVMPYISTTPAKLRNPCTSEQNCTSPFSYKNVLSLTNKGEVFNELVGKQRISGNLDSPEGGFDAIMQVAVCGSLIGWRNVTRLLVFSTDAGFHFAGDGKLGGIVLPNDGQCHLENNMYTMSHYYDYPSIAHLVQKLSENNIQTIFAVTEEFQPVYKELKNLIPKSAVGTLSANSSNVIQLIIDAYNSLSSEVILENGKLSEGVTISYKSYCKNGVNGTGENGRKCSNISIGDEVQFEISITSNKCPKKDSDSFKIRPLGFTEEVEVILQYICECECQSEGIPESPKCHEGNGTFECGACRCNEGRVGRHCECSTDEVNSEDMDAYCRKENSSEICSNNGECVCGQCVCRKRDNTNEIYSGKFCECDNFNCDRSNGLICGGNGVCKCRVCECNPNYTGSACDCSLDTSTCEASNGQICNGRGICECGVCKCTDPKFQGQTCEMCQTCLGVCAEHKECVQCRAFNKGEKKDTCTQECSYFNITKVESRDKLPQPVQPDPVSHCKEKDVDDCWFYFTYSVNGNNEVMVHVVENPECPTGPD

As usually defined, the IC50 is the concentration needed to halve the response being measured. `CC(C)(C)c1cc(Br)cc([C@H](CC(=O)O)NC(=O)CNC(=O)c2cc(O)cc(NC3=NCC(O)CN3)c2)c1` (stereo partly drawn) [Example 1, (3S)—N-[3-hydroxy-5-[(1,4,5,6-tetrahydro-5-hydroxy-2-pyrimidinyl)amino]benzoyl]glycyl-3-(3-bromo-5-tert-butylphenyl)-β-alanine]: the figures for the IC50 in experiment [1] and in experiment [2] were 2.5 nM and 564 nM, respectively.
